According to patent US6544931B1, “Substituted heteroaryloxyacetanilides and their use as herbicides” (Bayer Aktiengesellschaft, priority 1999, dated 2003):
Read-outs that look alike come from different tables or passages of the source.

What was measured:
[1] = system: weeds; test: Post-emergence test; format: in vivo; conditions: result in words
Protocol: (§1) Solvent: 5 parts by weight of acetone
(§2) Emulsifier: 1 part by weight of alkylaryl polyglycol ether
(§3) To produce a suitable preparation of active compound, 1 part by weight of active compound is mixed with the stated amount of solvent, the stated amount of emulsifier is added and the concentrate is diluted with water to the desired concentration.
(§4) Test plants which have a height of 5 to 15 cm are sprayed with the preparation of active compound such that the particular amounts of active compound desired are applied per unit area. The concentration of the spray liquor is chosen so that the particular amounts of active compound desired are applied in 1000 l of water/ha.
(§5) After three weeks, the degree of damage to the plants is rated in % damage in comparison to the development of the untreated control.
(§6) 0%=no effect (like untreated control)

[2] = system: Amaranthus; test: Pre-emergence test/greenhouse; format: in vivo; conditions: after three weeks
Protocol: as §1, §2, §3
(§7) Seeds of the test plants are sown in normal soil. After about 24 hours, the soil is sprayed with the preparation of active compound such that the particular amount of active compound desired is applied per unit area. The concentration of the spray liquor is chosen so that the particular amount of active compound desired is applied in 1000 litre of water per hectare.
(§8) After three weeks, the degree of damage to the plants is rated in % damage in comparison to the development of the untreated controls.
as §6

[3] = system: Matricaria; test: Pre-emergence test/greenhouse; format: in vivo; conditions: 125 g of ai/ha, after three weeks
Protocol: as §1, §2, §3, §7, §8, §6

[4] = system: Setaria; test: Pre-emergence test/greenhouse; format: in vivo; conditions: after three weeks
Protocol: as §1, §2, §3, §7, §8, §6

[5] = system: Veronica; test: Pre-emergence test/greenhouse; format: in vivo; conditions: 125 g of ai/ha, after three weeks
Protocol: as §1, §2, §3, §7, §8, §6

[6] = system: Maize; test: Pre-emergence test/greenhouse; format: in vivo; conditions: after three weeks, crop plant
Protocol: as §1, §2, §3, §7, §8, §6

[7] = system: weeds; test: Pre-emergence test; format: in vivo; conditions: result in words
Protocol: as §1, §2, §3, §7, §8, §6

[8] = logP by HPLC on reversed-phase column (EEC directive 79/831 Annex V.A8); format: physicochemical
Protocol: The lopP values given in Table 1 were determined in accordance with EEC directive 79/831 Annex V.A8 by HPLC (High Performance Liquid Chromatography) on a reversed-phase column (C 18). Temperature: 43° C. (a) Mobile phases for the determination in the acidic range: 0.1% aqueous phosphoric acid, acetonitrile; linear gradient of 10% acetonitrile to 90% acetonitrile—corresponding data in Table 1 are labelled a). Calibration was carried out using unbranched alkan-2-ones (with 3 to 16 carbon atoms) whose logP values are known (determination of the logP values by the retention times using linear interpolation between two successive alkanones).

[9] = system: Amaranthus; test: Post-emergence test/greenhouse; format: in vivo; conditions: after three weeks
Protocol: as §1, §2, §3, §4, §5, §6

[10] = system: Galium; test: Post-emergence test/greenhouse; format: in vivo; conditions: after three weeks
Protocol: as §1, §2, §3, §4, §5, §6

[11] = system: Sinapis; test: Post-emergence test/greenhouse; format: in vivo; conditions: after three weeks
Protocol: as §1, §2, §3, §4, §5, §6

[12] = system: Setaria; test: Post-emergence test/greenhouse; format: in vivo; conditions: after three weeks
Protocol: as §1, §2, §3, §4, §5, §6

[13] = system: Echinochloa; test: Pre-emergence test/greenhouse; format: in vivo; conditions: 500 g of ai/ha, after three weeks
Protocol: as §1, §2, §3, §7, §8, §6

[14] = system: Sugar beet; test: Pre-emergence test/greenhouse; format: in vivo; conditions: 500 g of ai/ha, after three weeks, crop plant
Protocol: as §1, §2, §3, §7, §8, §6

[15] = system: Ipomoea; test: Post-emergence test/greenhouse; format: in vivo; conditions: 500 g of ai/ha, after three weeks
Protocol: as §1, §2, §3, §4, §5, §6

[16] = system: Avena fatua; test: Pre-emergence test/greenhouse; format: in vivo; conditions: 500 g of ai/ha, after three weeks
Protocol: as §1, §2, §3, §7, §8, §6

[17] = system: Alopecurus; test: Pre-emergence test/greenhouse; format: in vivo; conditions: 500 g of ai/ha, after three weeks
Protocol: as §1, §2, §3, §7, §8, §6

[18] = system: Avena fatua; test: Post-emergence test/greenhouse; format: in vivo; conditions: 500 g of ai/ha, after three weeks
Protocol: as §1, §2, §3, §4, §5, §6

[19] = system: Wheat; test: Pre-emergence test/greenhouse; format: in vivo; conditions: 500 g of ai/ha, after three weeks, crop plant
Protocol: as §1, §2, §3, §7, §8, §6

[20] = system: Eriochloa; test: Pre-emergence test/greenhouse; format: in vivo; conditions: 500 g of ai/ha, after three weeks
Protocol: as §1, §2, §3, §7, §8, §6

[21] = system: Digitaria; test: Pre-emergence test/greenhouse; format: in vivo; conditions: 500 g of ai/ha, after three weeks
Protocol: as §1, §2, §3, §7, §8, §6

[22] = system: Lolium; test: Pre-emergence test/greenhouse; format: in vivo; conditions: 500 g of ai/ha, after three weeks
Protocol: as §1, §2, §3, §7, §8, §6

[23] = system: Cotton; test: Pre-emergence test/greenhouse; format: in vivo; conditions: 500 g of ai/ha, after three weeks, crop plant
Protocol: as §1, §2, §3, §7, §8, §6

[24] = system: Sinapis; test: Pre-emergence test/greenhouse; format: in vivo; conditions: 500 g of ai/ha, after three weeks
Protocol: as §1, §2, §3, §7, §8, §6

[25] = reversed-phase HPLC column (C 18); a) acidic range: 0.1% aqueous phosphoric acid, acetonitrile gradient, HPLC C 18, 43° C., read-out: logP

C#CCN(C(=O)COc1nnc(C(F)(F)F)s1)c1ccc(F)cc1 [Example 4]
activity against weeds [1]: strong activity | degree of damage, Amaranthus ([2]; 125 g of ai/ha): 100% | degree of damage, Matricaria [3]: 100% | degree of damage, Setaria ([4]; 125 g of ai/ha): 100% | degree of damage, Veronica [5]: 100% | degree of damage, Maize ([6]; 125 g of ai/ha): 0% | activity against weeds [7]: strong activity | chromatographic logP [8, 25]: 2.97 | degree of damage, Amaranthus ([9]; 2000 g of ai/ha): 95% | degree of damage, Galium ([10]; 2000 g of ai/ha): 90% | degree of damage, Sinapis ([11]; 2000 g of ai/ha): 95% | degree of damage, Setaria ([12]; 2000 g of ai/ha): 90%

C#CCN(C(=O)CO)c1ccc(F)cc1 [III-2, N-(4-fluorophenyl)-N-(2-propinyl)-2-hydroxyacetamide]
melting point: 57 °C

CC(C)(C)N(C(=O)CCl)c1ccc(Cl)cc1 [IV-1, N-(t-butyl)-N-(4-chlorophenyl)-2-chloroacetamide]
chromatographic logP ([8]; reversed-phase HPLC column (C 18), pH=2.5, read-out: logP (at pH=2.5)): 3.34

CC(C)(C)N(C(=O)COc1nnc(C(F)(F)F)s1)c1cccc(Cl)c1 [Example 9]
activity against weeds [1]: strong activity | degree of damage, Echinochloa [13]: 95% | degree of damage, Setaria ([4]; 500 g of ai/ha): 100% | degree of damage, Sugar beet [14]: 0% | degree of damage, Maize ([6]; 500 g of ai/ha): 0% | activity against weeds [7]: strong activity | melting point: 84 °C | degree of damage, Galium ([10]; 500 g of ai/ha): 90% | degree of damage, Ipomoea [15]: 90% | degree of damage, Setaria ([12]; 500 g of ai/ha): 70%

CC(C)(C)N(C(=O)COc1nnc(C(F)(F)F)s1)c1ccc(Cl)cc1 [Example 1, N-(t-butyl)-N-(4-chlorophenyl)-2-(5-trifluoromethyl-1,3,4-thiadiazol-2-yl-oxy)-acetamide]
activity against weeds [1]: strong activity | degree of damage, Avena fatua [16]: 80% | degree of damage, Alopecurus [17]: 80% | degree of damage, Echinochloa [13]: 95% | degree of damage, Setaria ([4]; 500 g of ai/ha): 100% | degree of damage, Maize ([6]; 500 g of ai/ha): 0% | activity against weeds [7]: strong activity | melting point: 82 °C | degree of damage, Avena fatua [18]: 80% | degree of damage, Galium ([10]; 500 g of ai/ha): 90% | degree of damage, Ipomoea [15]: 90% | degree of damage, Setaria ([12]; 500 g of ai/ha): 90%

CC(C)(C)N(C(=O)COc1nnc(C(F)(F)F)s1)c1ccc(F)cc1 [Example 7]
activity against weeds [1]: strong activity | degree of damage, Wheat [19]: 0% | degree of damage, Eriochloa [20]: 100% | degree of damage, Amaranthus ([2]; 500 g of ai/ha): 95% | degree of damage, Digitaria [21]: 100% | degree of damage, Alopecurus [17]: 90% | degree of damage, Setaria ([4]; 500 g of ai/ha): 100% | activity against weeds [7]: strong activity | melting point: 85 °C | degree of damage, Amaranthus ([9]; 1000 g of ai/ha): 80% | degree of damage, Galium ([10]; 1000 g of ai/ha): 95% | degree of damage, Sinapis ([11]; 1000 g of ai/ha): 80% | degree of damage, Setaria ([12]; 1000 g of ai/ha): 80%

C#CCN(C(=O)COc1nnc(C(F)(F)F)s1)c1cccc(C(F)(F)F)c1 [Example 3]
activity against weeds [1]: strong activity | degree of damage, Eriochloa [20]: 95% | degree of damage, Amaranthus ([2]; 500 g of ai/ha): 100% | degree of damage, Lolium [22]: 100% | degree of damage, Setaria ([4]; 500 g of ai/ha): 100% | degree of damage, Cotton [23]: 0% | degree of damage, Maize ([6]; 500 g of ai/ha): 0% | activity against weeds [7]: strong activity | chromatographic logP [8, 25]: 3.45 | degree of damage, Amaranthus ([9]; 2000 g of ai/ha): 100% | degree of damage, Galium ([10]; 2000 g of ai/ha): 90% | degree of damage, Sinapis ([11]; 2000 g of ai/ha): 100% | degree of damage, Setaria ([12]; 2000 g of ai/ha): 95%

C#CCN(C(=O)COc1nc2ccccc2o1)c1ccc(F)cc1 [Example 6]
activity against weeds [1]: strong activity | degree of damage, Amaranthus ([2]; 500 g of ai/ha): 100% | degree of damage, Sinapis [24]: 95% | degree of damage, Setaria ([4]; 500 g of ai/ha): 100% | activity against weeds [7]: strong activity | melting point: 138 °C | degree of damage, Amaranthus ([9]; 500 g of ai/ha): 90% | degree of damage, Galium ([10]; 500 g of ai/ha): 90% | degree of damage, Setaria ([12]; 500 g of ai/ha): 90%

C#CCN(C(=O)CCl)c1ccc(F)cc1 [IV-2, N-(4-fluorophenyl)-N-(2-propinyl)-2-chloroacetamide]
logP [8]: logP = 2.69^a)

CC(C)(C)N(C(=O)CO)c1ccc(Cl)cc1 [III-1, N-(t-butyl)-N-(4-chlorophenyl)-2-hydroxyacetamide]
chromatographic logP ([8]; reversed-phase HPLC column (C 18), pH=2.3, read-out: logP (at pH=2.3)): 2.54
